This note sets out measurements from US20230158034A1, “CO-TREATMENT WITH CDK4/6 AND CDK2 INHIBITORS TO SUPPRESS TUMOR ADAPTATION TO CDK2 INHIBITORS” (Pfizer Inc., priority 2020, published 2023).

The subject of assay [1] is CDK2 activity (DHB sensor phosphorylation). Briefly: DHB-based CDK2 activity sensor, single-cell time-lapse imaging (C/N ratio). Set-up: species or system human. The text has this:
(§1) The DHB sensor is localized to the nucleus when it is not phosphorylated. Upon phosphorylation, the nuclear localization signal is masked, the nuclear export signal is unmasked, and the sensor steadily translocates to the cytoplasm in response to increasing CDK2 activity (FIG. 1A). Thus, kinase activity can be quantified by the ratio of the cytoplasmic to nuclear fluorescence intensity (C/N ratio) of the DHB sensor. […] Asynchronously cycling cells were first imaged for approximately 20 hr in the absence of drug to establish the cell-cycle phase of each cell; the movie was then paused to add drug, and then imaging was continued for another 1-2 days. Because the cells were cycling asynchronously, all cell-cycle phases with one drug treatment were sampled. This allowed the present inventors to computationally isolate traces for cells that received drug at any time since the completion of anaphase.
(§2) Cells were seeded at least 24 hr prior to imaging in phenol-red-free full-growth medium in glass-bottom 96-well plates (CellVis P96-1.5H-N) that were coated with collagen prior to seeding. The seeding density was chosen such that the cells would remain sub-confluent until the end of the imaging period. Cells were first imaged for 16-20 hr in full-growth media without drug. The movie was then briefly paused and the full-growth media was replaced with full-growth media containing drug at the desired concentration. The plate was then re-inserted into the microscope and aligned to its prior position and imaging was continued for an additional 24-48 hr. Images were acquired every 12 min (for MCF10A or RPE-hTERT) or every 20 min (for MCF7 or OVCAR3) on a Nikon Eclipse Ti or Ti2 microscope with a 10×0.45 NA objective in a humidified, 37° C. chamber at 5% CO2. Exposure times for all movies for all channels were kept under 500 ms per timepoint to minimize phototoxicity. Cell tracking was performed using published MATLAB scripts (Cappell et al., 2016), as described previously (Arora et al., 2017). The tracking code is available for download at https://github.com/scappell/Cell_tracking. Cell counts over time were obtained by counting the number of segmented nuclei in each frame of the movie.
Asynchronously cycling cells that divided and received drug treatments during the imaging period were initially segmented into categories based on the cells' time of anaphase relative to the time of drug addition. These cells were then additionally subcategorized based on their DHB cytoplasmic/nuclear (C/N) ratio after the mitotic event. C/N ratio was calculated by quantifying the ratio of cytoplasmic to nuclear mean DHB fluorescence, with the cytoplasmic component calculated as the mean of the top 50th percentile of a ring of pixels outside of the nuclear mask.
Cells were classified as CDK2^inc if the DHB C/N ratio was above 0.5 units 3 hr after anaphase, otherwise they were classified as CDK2^low. Figure legends indicate whether only CDK2^inc cells or whether all cells are plotted. The median of the single-cell traces in a subcategory was then used to create median trace with 95% confidence interval representative of the particular subcategory. All cell trace analysis was done using custom MATLAB scripts and code is available upon request.

The test system of assay [2] is Rb, Nucleolin, Cdc6 and Nbs1 phosphorylation. The experiment in a line: Immunofluorescence and western blotting of endogenous CDK2 substrates. The class given is cell-based, human. The settings on record: 10 μM 3 MB-PP1 for 1 hr, RPE-hTERT CDK2^F80G/F80G cells. As to the method:
Cells were fixed for 15 minutes with freshly prepared 4% paraformaldehyde, washed twice with PBS, and incubated with a blocking buffer (3% BSA in PBS) for 1 hr at room temperature. Permeabilization was carried out using 0.2% Triton-X 100 for 15 min at 4° C. Primary antibody was diluted in blocking buffer and incubated with cells overnight at 4° C. followed by three washes with 1×PBS. Secondary antibodies conjugated to Alexa Fluor 488, Alexa Fluor 546 or Alexa Fluor 647 were incubated for 1 hr followed by three washes with 1×PBS. DNA was stained using Hoechst 33342 dye for 10 minutes at 1:10000 (ThermoFisher H3570). Images were acquired on a Nikon Eclipse Ti or Ti2 microscope with a 10×0.45 NA objective. DNA content was determined by taking the integrated intensity of each cell's Hoechst signal. Cells were delineated as 3-4N DNA content by plotting a histogram of DNA content and drawing a threshold and the end of the 2N peak.
Lysates were prepared using 1×LDS sample buffer (ThermoFisher NP007) using equal numbers of cells. Proteins were separated using NuPAGE precast polyacrylamide gels (ThermoFisher NP0301). Total protein was quantified using Azure Red Dye (Azure Biosystems AC2124) and was used to normalize the signal from antibodies of interest. Primary antibodies used are specified under the “Antibodies” section. HRP-conjugated or IR700 and IR800 labeled fluorescent secondary antibodies were used for visualization (Cell Signaling Technology 7074 and 7076).

The subject of assay [3] is MCF10A, RPE-hTERT, MCF7 and OVCAR3 cells. Briefly: Cell-cycle progression, mitosis and proliferation by time-lapse imaging. It is filed as cell-based, human. The settings on record: 1 μM palbociclib (after the upcoming mitosis) or 9 μM RO3306 (toward end of cell cycle), MCF10A.
Excerpt: as §1, §2

With `Cc1cccc(Cc2nn(C(C)(C)C)c3ncnc(N)c23)c1` [3 MB-PP1, 1-(tert-butyl)-3-(3-methylbenzyl)-1H-pyrazolo[3,4-d]pyrimidin-4-amine], the DHB sensor phosphorylation entry in assay [1] (10 μM 3 MB-PP1, RPE-hTERT CDK2^F80G/F80G cells) is on record as “reduction in DHB sensor phosphorylation that quickly rebounded”; in assay [1] (10 μM 3 MB-PP1, wild-type RPE-hTERT cells), “not affected”. Also, the Nbs1 phosphorylation entry in assay [2] was “loss of Nbs1 phosphorylation”.

For `O=C1NC(=NCc2cccs2)S/C1=C\c1ccc2ncccc2c1` [RO3306], the cell-cycle arrest result in assay [3] is “G2 arrest”. Further, the “DHB phosphorylation in RPE-hTERT CDK2^F80G/F80G cells as compared to wild-type RPE-hTERT cells” value in assay [1] (9 μM RO3306) is listed as “much greater drop in DHB phosphorylation”. The “effect on DHB sensor phosphorylation” value in assay [1] (9 μM RO3306, MCF10A) is “minimal immediate effect”.
